# Source: paper PMC12073438, “Stereoselectivity of In Vivo Processes and Bioactivity of Farrerol Enantiomers” (Molecules, 2025)
# Values joined by “and” are separate entries in the source; they are usually repeats but may differ in a detail not shown here. Equal entries are not always repeated. Where two headings read alike, the source gives them in different places.
# Legend:
# [1] = Stereoselective pharmacokinetics in rat plasma; type: in vivo, Sprague–Dawley rats; conditions: for MRT last: read-out: MRT(0–t)
# Description: The pharmacokinetic data were optimally characterized by a noncompartmental model. The mean concentration-time profiles for the farrerol enantiomers are illustrated in Figure 3, along with the corresponding key pharmacokinetic parameters presented in Table 2.
# Twenty-five rats were randomly divided into five experimental groups (A, B, C, D, and E). Groups A and B received farrerol racemate via intragastric administration at doses of 150 mg/kg and 75 mg/kg, respectively. Group C was administered 4 mg/kg of farrerol racemate through caudal intravenous administration. […] Blood samples (300 μL) were obtained from the orbital venous plexus into heparinized tubes at various time points: 0.25, 0.5, 1, 2, 3, 5, 7, 9, 12, and 24 h following gavage administration, and at 0.083, 0.167, 0.25, 0.5, 1, 1.5, 2, 2.5, 3, and 5 h post-intravenous administration. Plasma was separated by centrifugation (3000 rpm, 10 min) and stored at −80 °C until analysis.
# A total of 150 μL of plasma and 50 μL of the internal standard solution were added to a 1.5 mL EP tube and mixed using a vortex for 30 s. Subsequently, 500 μL of ether was introduced, and the mixture was vortexed for 5 min. Following centrifugation at 10,000 rpm for 10 min, the resulting organic layer was carefully transferred to a separate tube. Each sample underwent two extraction processes. The resulting ether layer was then evaporated to dryness using a continuous air stream at room temperature. A 250 μL aliquot of methanol was employed to re-dissolve the residue, utilizing vortex mixing for 2 min. Following centrifugation at 14,000 rpm for 10 min, the supernatant was subsequently injected into the HPLC-MS system for analysis.
# Stereoselective chromatographic analysis of farrerol enantiomers was conducted utilizing an ACQUITY UPLC I-Class UPLC system (Waters, Milford, MA, USA), which is equipped with a quaternary pump and an autosampler. The chiral separation was carried out employing a Chiralpak OJ-RH column (250 mm × 4.6 mm, 5 μm), which was obtained from Daicel Chemical Industries (Shanghai, China). The mobile phase consisted of ACN-H2O (60:40, v/v), and the constant flow rate was 0.5 mL/min. The column temperature was set at 25 °C, and the injection volume was 10 μL.
# Mass detection was conducted using a triple quadrupole mass spectrometer (Waters Co., USA) equipped with an electrospray ionization (ESI) source. The detection of enantiomers and internal standards (IS) was carried out in multiple reaction monitoring (MRM) mode utilizing negative ionization. The m/z 299→179 for enantiomers and m/z 267→252 for IS were selected as detecting ions for quantitation. The collision energies (CE) were established at 22 eV and 20 eV, respectively. The primary mass spectrometry (MS) parameters were configured as follows: capillary voltage was set to 3.5 kV, ion source temperature was maintained at 150 °C, desolvation gas flow rate was 800 L/h, and the cone voltage (CV) was adjusted to 1.3 V.
# Pharmacokinetic analysis was conducted utilizing the Drug and Statistics (DAS) 2.0 software provided by the Chinese Pharmacological Society. To assess the differences in pharmacokinetic parameters, the IC50 values of the evaluated CYP enzymes and the permeability coefficients between the two farrerol enantiomers, paired sample t-tests and independent sample t-tests were performed. Statistical significance was defined as * p < 0.05 and ** p < 0.01. All results are presented as mean values ± standard deviation (SD).
# [2] = Rat single-pass intestinal perfusion; type: in vivo, Sprague–Dawley rats
# Description: The absorption rate constant (Ka) and permeability coefficient (Peff) were calculated using the following equation: […] The single-pass intestinal perfusion studies in rats were conducted following previously established methodologies. […] Before the surgical procedure, animals were fasted overnight with water ad libitum. Rats were anesthetized via intraperitoneal administration of 20% urethane at a dosage of 6 mL/kg and subsequently positioned on a heating pad. Their normal body temperature (37.0 ± 0.5 °C) was sustained using an infrared lamp. A midline incision was made to open the abdomen, allowing for the exposure of 35–45 cm of the small intestine, along with a 10 cm segment […]. This segment was cannulated with Teflon tubing (0.42 cm in diameter) at both the proximal and distal ends, which were then secured with silk sutures. This segment was gently flushed with warmed normal saline to remove intestinal contents. Then, farrerol racemate maintained at 37 °C was perfused through the lumen of the small intestine at a flow rate of 0.2 mL/min. After a 30 min equilibration period to reach steady-state outlet concentrations, the perfusate samples were collected every 15 min for 120 min in micro-centrifuge tubes. The length of the small intestinal segment was measured following the last collection. All collected samples were stored at −20 °C. 500 μL of collected intestinal perfusion samples were placed in an EP tube and then dried with nitrogen at 37 °C. The residue was redissolved and precipitated with 200 μL of methanol by vortex-mixing for 5 min. Following centrifugation at 13,000 rpm for 10 min, the supernatant samples were analyzed using the previously validated RP-HPLC-DAD method. The chiral HPLC technique employed for the analysis of farreol enantiomers in intestinal perfusate aligned with the chromatographic procedure outlined in Section 3.4.3. This method underwent validation for parameters including linearity, range, extraction recovery, specificity, precision, and accuracy. […] The extraction recoveries of farrerol in intestinal perfusate at three different concentration levels ranged from 90.57% to 95.57%.
# [3] = Sprague-Dawley, rat, plasma, iv, 4 mg/kg, i.v. of farrerol racemate (4 mg/kg)
# [4] = Sprague-Dawley, rat, plasma, po, 150 mg/kg, i.g. of farrerol racemate (150 mg/kg)
# [5] = i.g. of farrerol racemate (75 mg/kg)
# [6] = i.g. of farrerol racemate (150 mg/kg)
# [7] = i.g. of the single enantiomer (75 mg/kg)
# [8] = oral 75 mg/kg farrerol racemate
smiles,measurement,setting,value
"Cc1c(O)c(C)c2c(c1O)C(=O)CC(c1ccc(O)cc1)O2 (single isomer, unassigned; (+)) [(+)-farrerol, 2,3-dihydro-5,7-dihydroxy-2-(4-hydroxyphenyl)-6,8-dimethyl-4-benzopyrone]",AUC(0-inf),[1]; [3],1550 ± 56 ng·h/mL
same,AUC(0-t),[1]; [3],1460 ± 54.5 ng·h/mL
same,half-life,[1]; [3],10.7 ± 0.1 h
same,Cmax,"[1]; Sprague-Dawley, rat, plasma, iv, 4 mg/kg, i.v. of farrerol racemate (4 mg/kg), read-out: Cmax",2660 ng/mL
same,MRT last,[1]; [3],2.7 ± 0.1 h
same,Tmax,"[1]; Sprague-Dawley, rat, plasma, iv, 4 mg/kg, i.v. of farrerol racemate (4 mg/kg), read-out: Tmax",0.08 h
same,MRT last,"[1]; Sprague-Dawley, rat, plasma, po, 75 mg/kg, i.g. of farrerol racemate (75 mg/kg)",6.27 ± 0.27 h
same,bioavailability,[1]; [4],6.4 ± 0.04%
same,Cmax,"[1]; Sprague-Dawley, rat, plasma, po, 150 mg/kg, i.g. of farrerol racemate (150 mg/kg), read-out: Cmax",457 ± 24.6 ng/mL
same,MRT last,[1]; [4],5.98 ± 0.14 h
same,Tmax,"[1]; Sprague-Dawley, rat, plasma, po, 150 mg/kg, i.g. of farrerol racemate (150 mg/kg), read-out: Tmax",1.5 h
same,AUC(0–t),[1]; [5],2399 ng·h/mL and 2399.1 ± 102.3 ng·h/mL
same,AUC(0–∞),[1]; [5],6870.3 ± 511.4 ng·h/mL
same,Cmax,[1]; [5],287.0 ± 24.6 ng/mL
same,F,[1]; [5],8.7 ± 0.7%
same,Tmax,[1]; [5],3.00 h
same,t1/2,[1]; [5],19.2 ± 2.0 ** h
same,AUC(0–t),[1]; [6],3522.6 ± 146.0 ng·h/mL
same,AUC(0–∞),[1]; [6],"13,885.5 ± 2550.4 ng/mL*h"
same,t1/2,[1]; [6],22.9 ± 2.6 h
same,AUC(0–∞),[1]; [7],"22,122.4 ± 1894.1 ng/mL*h"
same,Cmax,[1]; [7],1177.4 ± 84.5 ng/mL
same,MRT(0–t),[1]; [7],9.12 ± 0.18 h
same,Tmax,[1]; [7],5.00 h
same,t1/2,[1]; [7],10.4 ± 0.4 h
same,Cmax,[1]; i.v. of farrerol racemate (4 mg/kg),2662.7 ± 226.4 ng/mL
same,AUC0–t of (+)-farrerol relative to (−)-farrerol,[1]; [8],~5.6 fold
same,Cmax of (+)-farrerol relative to (−)-farrerol,[1]; [8],about 3.5 fold
same,AUC0–t of (+)-farrerol relative to (−)-farrerol,[1]; oral 75 mg/kg of single enantiomers,~2.61 fold
same,chiral transformation between enantiomers,[1]; single enantiomers orally administered (75 mg/kg),no chiral transformation
same,Peff,"[2]; Colon, farrerol racemate 66.00 μg·mL^−1",1.09 ± 0.37 ×10^−1 cm·min^−1
same,Peff,"[2]; Colon, farrerol racemate 132.00 μg·mL^−1",0.93 ± 0.09 ×10^−1 cm·min^−1
same,Peff,"[2]; Colon, farrerol racemate 132.00 μg·mL^−1 + verapamil",1.41 ± 0.23 ×10^−1 cm·min^−1
same,Peff,"[2]; Colon, farrerol racemate 180.00 μg·mL^−1",1.04 ± 0.12 ×10^−1 cm·min^−1
same,Peff,"[2]; Duodenum, farrerol racemate 66.00 μg·mL^−1",1.32 ± 0.03 ×10^−1 cm·min^−1
same,Peff,"[2]; Duodenum, farrerol racemate 132.00 μg·mL^−1",1.16 ± 0.11 ×10^−1 cm·min^−1
same,Peff,"[2]; Duodenum, farrerol racemate 132.00 μg·mL^−1 + verapamil",1.42 ± 0.17 ×10^−1 cm·min^−1
same,Peff,"[2]; Duodenum, farrerol racemate 180.00 μg·mL^−1",1.30 ± 0.14 ×10^−1 cm·min^−1
same,Peff,"[2]; Ileum, farrerol racemate 66.00 μg·mL^−1",1.12 ± 0.22 ×10^−1 cm·min^−1
same,Peff,"[2]; Ileum, farrerol racemate 132.00 μg·mL^−1",0.87 ± 0.08 ×10^−1 cm·min^−1
same,Peff,"[2]; Ileum, farrerol racemate 132.00 μg·mL^−1 + verapamil",0.77 ± 0.11 ×10^−1 cm·min^−1
same,Peff,"[2]; Ileum, farrerol racemate 180.00 μg·mL^−1",0.79 ± 0.04 ×10^−1 cm·min^−1
same,Peff,"[2]; Jejunum, farrerol racemate 66.00 μg·mL^−1",1.16 ± 0.23 ×10^−1 cm·min^−1
same,Peff,"[2]; Jejunum, farrerol racemate 132.00 μg·mL^−1",0.73 ± 0.03 ×10^−1 cm·min^−1
same,Peff,"[2]; Jejunum, farrerol racemate 132.00 μg·mL^−1 + verapamil",1.12 ± 0.10 ×10^−1 cm·min^−1
same,Peff,"[2]; Jejunum, farrerol racemate 180.00 μg·mL^−1",1.03 ± 0.06 ×10^−1 cm·min^−1
